Active and inactive are the calls of the source. The calls are words filed in the database; no cut-off is given here. Where a SMILES comes first, the peptide text is derived from it.
Assays:
HEK293 = assay: Activation of COL1a2 transcriptional activity in HEK293 cells by dual-luciferase reporter assay; format: functional, cell-based; conditions: Homo sapiens
[1] = Antioxidant activity assessed as ABTS radical scavenging activity at 80 ug/mL incubated for 10 mins by absorbance based assay; format: functional; conditions: dose 80.0 µg/ml
[2] = Antioxidant activity assessed as ROS scavenging activity; format: functional
[3] = Antioxidant activity assessed as DPPH radical scavenging activity by measuring eradication rate at 80 ug/mL incubated for 30 mins by absorbance based assay relative to control; format: functional; conditions: dose 80.0 µg/ml
Mus musculus [4] = assay: Protection against UV radiation-stress induced skin damage in Kunming mouse model assessed as repair of broken skin at 20 ug/ml administered topically and measured every 2 days for 10 days; format: functional, organism-based; conditions: dose 20.0 µg/ml, route top, time 10.0 day
HFF-1 [5] = assay: Cytotoxicity against HFF-1 cells upto 160 ug/mL incubated for 24 hrs by MTT assay; format: toxicity, cell-based; conditions: human, hff-1, 24 h, up to 160 µg/mL
HFF-1 [6] = assay: Restoration of H2O2-induced mitochondrial membrane potential damage in SIPS HFF-1 cell model at 5 to 25 ug/mL incubated for 20 mins by JC-1 staining based fluorescence microscopic analysis; format: functional; conditions: Homo sapiens, dose 5-25 µg/ml
HFF-1 [7] = assay: Inhibition of intracellular ROS level in UV-A-induced SIPS HFF-1 cell model assessed as reduction in ROS level pretreated with compound for 24 hrs followed by 10.8 J/cm^2 UV-A irritation incubated for 30 mins under dark condition by DCFH-DA staining based flow cytometry analysis; format: functional; conditions: Homo sapiens, dose 5-50 µg/ml, time 24.5 hrs
[8] = target: Ribosomal protein S6 kinase (Homo sapiens) (UniProt P51812+Q9UBS0+O75676+Q15349+O75582+P23443+Q9UK32+Q15418); assay: Inhibition of H2O2-induced S6K phosphorylation in HFF-1 cells at 5 to 25 ug/mL pretreated with compound for 24 hrs followed by H2O2 exposure for 2 hrs by Western blot analysis; format: cell-based; conditions: dose 5-25 µg/ml, time 26.0 hrs
HFF-1 [9] = assay: Downregulation of MMP-1 expression in UV-A-induced SIPS HFF-1 cell model pretreated with compound for 24 hrs followed by 10.8 J/cm^2 UV-A irradiation by Western blot analysis; format: functional, cell-based; conditions: Homo sapiens, dose 5-25 µg/ml
HFF-1 [10] = assay: Inhibition of H2O2-stimulated IL-1beta production in SIPS HFF-1 cell model pre-incubated with compound for 12 hrs followed by H2O2 stimulation for 60 mins by ELISA method; format: functional, cell-based; conditions: Homo sapiens, dose 5-25 µg/ml, time 13.0 hrs
HFF-1 [11] = assay: Inhibition of H2O2-stimulated IL-6 production in SIPS HFF-1 cell model pre-incubated with compound for 12 hrs followed by H2O2 stimulation for 60 mins by ELISA method; format: functional, cell-based; conditions: Homo sapiens, dose 5-25 µg/ml, time 13.0 hrs
[12] = Toxicity in Wistar rat mast cell assessed as cell degranulation by measuring beta-hexosaminidase release at 160 ug/mL incubated for 15 mins by fluorescence based analysis (reference value: 20.13 +/- 1.40 %); conditions: 0.25 h, at 160 µg/mL
HFF-1 [13] = assay: Induction of autophagy in H2O2-induced SIPS HFF-1 cell model assessed as ratio of LC3BII/LC3BI levels at 5 to 25 ug/mL pretreated with compound for 24 hrs followed by H2O2 exposure for 2 hrs by Western blot analysis; format: functional, cell-based; conditions: Homo sapiens, dose 5-25 µg/ml, time 26.0 hrs
HFF-1 [14] = assay: Induction of autophagy in H2O2-induced SIPS HFF-1 cell model assessed as beclin-1 expression at 5 to 25 ug/mL pretreated with compound for 24 hrs followed by H2O2 exposure for 2 hrs by Western blot analysis; format: functional, cell-based; conditions: Homo sapiens, dose 5-25 µg/ml, time 26.0 hrs
[15] = Toxicity in Wistar rat mast cell assessed as cell degranulation by measuring increase in beta-hexosaminidase release at 160 ug/mL incubated for 15 mins by fluorescence based analysis (reference value: 0 +/- 1.40 %); conditions: 0.25 h, at 160 µg/mL
[16] = target: Nuclear factor NF-kappa-B complex (Homo sapiens) (UniProt Q00653+P19838+Q04206); assay: Inhibition of NF-kappaB activation in HFF-1 cells assessed as suppression of UV-A-induced IkappaBalpha degradation at 5 to 25 ug/mL pretreated with compound for 24 hrs followed by 10.8 J/cm^2 UV-A irradiation by Western blot analysis; format: cell-based; conditions: dose 5-25 µg/ml
Nuclear factor NF-kappa-B complex (Homo sapiens), sequence (P19838 whole entry, looked up): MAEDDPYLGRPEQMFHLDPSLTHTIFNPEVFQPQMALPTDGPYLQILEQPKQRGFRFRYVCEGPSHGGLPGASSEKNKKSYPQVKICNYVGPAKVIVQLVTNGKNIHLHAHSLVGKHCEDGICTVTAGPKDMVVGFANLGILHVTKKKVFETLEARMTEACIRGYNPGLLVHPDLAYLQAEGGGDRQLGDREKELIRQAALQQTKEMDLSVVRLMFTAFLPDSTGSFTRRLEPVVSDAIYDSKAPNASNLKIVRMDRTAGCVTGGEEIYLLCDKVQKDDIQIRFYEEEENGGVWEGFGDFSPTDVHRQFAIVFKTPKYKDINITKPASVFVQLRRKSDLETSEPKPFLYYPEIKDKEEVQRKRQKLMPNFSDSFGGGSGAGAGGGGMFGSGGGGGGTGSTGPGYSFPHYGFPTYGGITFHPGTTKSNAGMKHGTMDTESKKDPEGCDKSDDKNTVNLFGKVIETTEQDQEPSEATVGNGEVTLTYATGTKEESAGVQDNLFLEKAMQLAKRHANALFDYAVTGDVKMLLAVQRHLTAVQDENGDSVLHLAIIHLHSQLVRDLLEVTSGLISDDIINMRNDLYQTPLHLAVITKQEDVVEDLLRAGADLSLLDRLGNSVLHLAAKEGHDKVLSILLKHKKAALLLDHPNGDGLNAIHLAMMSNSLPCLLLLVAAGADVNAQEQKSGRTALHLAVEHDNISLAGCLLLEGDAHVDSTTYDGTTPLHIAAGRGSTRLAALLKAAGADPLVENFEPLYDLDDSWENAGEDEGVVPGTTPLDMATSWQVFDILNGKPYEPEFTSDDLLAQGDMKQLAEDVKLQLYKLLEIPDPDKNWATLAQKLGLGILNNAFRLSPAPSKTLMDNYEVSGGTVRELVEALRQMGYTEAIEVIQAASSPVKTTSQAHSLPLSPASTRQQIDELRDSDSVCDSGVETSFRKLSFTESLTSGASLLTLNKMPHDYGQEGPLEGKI
Nuclear factor NF-kappa-B complex (Homo sapiens), sequence (Q00653 whole entry, looked up): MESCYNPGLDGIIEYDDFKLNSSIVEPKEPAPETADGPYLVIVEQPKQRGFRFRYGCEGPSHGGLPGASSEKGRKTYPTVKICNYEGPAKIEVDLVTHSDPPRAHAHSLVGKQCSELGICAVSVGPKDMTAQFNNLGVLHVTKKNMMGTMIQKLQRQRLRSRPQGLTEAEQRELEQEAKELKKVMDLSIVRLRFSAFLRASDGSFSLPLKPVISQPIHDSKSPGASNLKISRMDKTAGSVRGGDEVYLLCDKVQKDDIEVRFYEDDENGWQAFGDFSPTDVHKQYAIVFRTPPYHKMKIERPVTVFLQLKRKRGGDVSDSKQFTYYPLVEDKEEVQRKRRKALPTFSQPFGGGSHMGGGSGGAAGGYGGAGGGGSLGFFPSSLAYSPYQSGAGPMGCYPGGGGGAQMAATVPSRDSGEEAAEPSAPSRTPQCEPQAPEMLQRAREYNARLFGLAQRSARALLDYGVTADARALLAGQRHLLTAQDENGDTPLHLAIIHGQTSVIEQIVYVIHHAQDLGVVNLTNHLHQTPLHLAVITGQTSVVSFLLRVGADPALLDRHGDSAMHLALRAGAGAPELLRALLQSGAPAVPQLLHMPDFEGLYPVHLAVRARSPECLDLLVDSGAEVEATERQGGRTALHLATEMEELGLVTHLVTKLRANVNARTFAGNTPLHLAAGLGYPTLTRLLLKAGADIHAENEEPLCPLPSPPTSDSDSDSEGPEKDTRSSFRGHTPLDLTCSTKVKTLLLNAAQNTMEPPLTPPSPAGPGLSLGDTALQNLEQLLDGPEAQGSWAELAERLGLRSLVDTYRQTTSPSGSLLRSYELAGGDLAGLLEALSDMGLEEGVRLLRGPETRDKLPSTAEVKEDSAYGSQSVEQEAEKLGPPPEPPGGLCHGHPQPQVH
Nuclear factor NF-kappa-B complex (Homo sapiens), sequence (Q04206 whole entry, looked up): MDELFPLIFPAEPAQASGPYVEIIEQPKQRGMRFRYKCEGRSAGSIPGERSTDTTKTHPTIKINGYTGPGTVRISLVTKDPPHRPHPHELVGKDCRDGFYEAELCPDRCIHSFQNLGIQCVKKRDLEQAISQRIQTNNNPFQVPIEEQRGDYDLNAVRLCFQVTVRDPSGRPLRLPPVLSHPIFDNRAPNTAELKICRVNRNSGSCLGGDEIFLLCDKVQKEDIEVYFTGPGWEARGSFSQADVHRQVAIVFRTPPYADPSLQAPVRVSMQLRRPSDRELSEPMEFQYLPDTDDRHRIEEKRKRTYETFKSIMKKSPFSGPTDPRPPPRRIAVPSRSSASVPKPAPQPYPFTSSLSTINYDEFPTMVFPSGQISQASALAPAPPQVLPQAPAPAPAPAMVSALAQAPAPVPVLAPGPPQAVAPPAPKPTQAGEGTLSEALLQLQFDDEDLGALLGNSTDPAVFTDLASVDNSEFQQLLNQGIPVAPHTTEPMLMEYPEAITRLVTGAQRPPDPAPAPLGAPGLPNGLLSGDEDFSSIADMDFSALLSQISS

HFF-1 [17] = assay: Inhibition of H2O2-induced AKT activation in HFF-1 cells assessed as downregulation of mTOR phosphorylation at 5 to 25 ug/mL pretreated with compound for 24 hrs followed by H2O2 exposure for 2 hrs by Western blot analysis; format: cell-based; conditions: Homo sapiens, dose 5-25 µg/ml, time 26.0 hrs
[18] = Antioxidant activity assessed as ABTS radical scavenging activity in presence of 50 mM NaCl; format: functional
[19] = Toxicity in Wistar rat mast cell assessed as cell degranulation by measuring beta-hexosaminidase release at 40 ug/mL incubated for 15 mins by fluorescence based analysis (reference value: 20.13 +/- 1.40 %); conditions: 0.25 h, at 40 µg/mL
[20] = Toxicity in Wistar rat mast cell assessed as cell degranulation by measuring increase in beta-hexosaminidase release at 40 ug/mL incubated for 15 mins by fluorescence based analysis (reference value: 0 +/- 1.40 %); conditions: 0.25 h, at 40 µg/mL
HFF-1 [21] = assay: Inhibition of H2O2-induced AKT phosphorylation in HFF-1 cells at 5 to 25 ug/mL pretreated with compound for 24 hrs followed by H2O2 exposure for 2 hrs by Western blot analysis; format: cell-based; conditions: Homo sapiens, dose 5-25 µg/ml, time 26.0 hrs
Mus musculus [22] = assay: In vivo anti-skin aging activity against UV-induced SIPS Kunming mouse model assessed as repair of wrinkled skin at 100 ug/ml administered topically for 5 weeks in presence of propylene glycol by macroscopic analysis; format: functional, organism-based; conditions: dose 100.0 µg/ml, route top
HFF-1 [23] = assay: Protection against H2O2-induced SIPS HFF-1 cell model assessed as reduction in cell senescence at 5 to 25 ug/mL pretreated for 24 hrs followed by irritation with H2O2 for 2 hrs by SA-beta-Gal staining assay; format: functional, cell-based; conditions: Homo sapiens, dose 5-25 µg/ml, time 26.0 hrs
Mus musculus [24] = assay: In vivo anti-skin aging activity against UV-induced SIPS Kunming mouse model assessed as restoration of dorsal skin thickness at 100 ug/ml administered topically for 5 weeks in presence of propylene glycol by caliper method; format: functional, organism-based; conditions: dose 100.0 µg/ml, route top
HFF-1 [25] = assay: Antioxidant activity against UV-A-induced SIPS HFF-1 cell model assessed as recovery of SOD level at 5 to 25 ug/mL pretreated with compound followed by 10.8 J/cm^2 UV-A irradiation; format: functional, cell-based; conditions: Homo sapiens, dose 5-25 µg/ml
[26] = Antioxidant activity assessed as ABTS radical scavenging activity in presence of 400 mM NaCl; format: functional
Mus musculus [27] = assay: In vivo anti-skin aging activity against UV-induced SIPS Kunming mouse model assessed as prevention of wrinkle and erythema formation at 100 ug/ml administered topically and measured for 10 weeks in presence of propylene glycol by macroscopic analysis; format: functional, organism-based; conditions: dose 100.0 µg/ml, route top
HFF-1 [28] = assay: Inhibition of H2O2-stimulated TNF-alpha production in SIPS HFF-1 cell model pre-incubated with compound for 12 hrs followed by H2O2 stimulation for 60 mins by ELISA method; format: functional, cell-based; conditions: Homo sapiens, dose 5-25 µg/ml, time 13.0 hrs
HFF-1 [29] = assay: Induction of autophagy in H2O2-induced SIPS HFF-1 cell model assessed as p62 expression at 5 to 25 ug/mL pretreated with compound for 24 hrs followed by H2O2 exposure for 2 hrs by Western blot analysis; format: functional, cell-based; conditions: Homo sapiens, dose 5-25 µg/ml, time 26.0 hrs
[30] = Thermal stability of compound by measuring retention of ABTS radical scavenging activity at 2 mg/mL at 37 degC for 96 hrs; format: physicochemical
HFF-1 [31] = assay: Protection against UV-A/H2O2-stress induced premature senescence HFF-1 cell model assessed as cell migration by measuring cellular repair activity at 10 ug/mL upto 24 hrs by inverted microscopic based cell scratch assay; format: functional; conditions: Homo sapiens, dose 10.0 µg/ml
[32] = Toxicity in Wistar rat mast cell assessed as cell degranulation by measuring beta-hexosaminidase release at 10 ug/mL incubated for 15 mins by fluorescence based analysis (reference value: 20.13 +/- 1.40 %); conditions: 0.25 h, at 10 µg/mL
Mus musculus [33] = assay: In vivo anti-skin aging activity against UV-induced SIPS Kunming mouse model assessed as upregulation of skin elasticity at 100 ug/ml administered topically and measured for 10 weeks in presence of propylene glycol; format: functional, organism-based; conditions: dose 100.0 µg/ml, route top
HFF-1 [34] = assay: Antioxidant activity against UV-A-induced SIPS HFF-1 cell model assessed as recovery of CAT level at 5 to 25 ug/mL pretreated with compound followed by 10.8 J/cm^2 UV-A irradiation; format: functional, cell-based; conditions: Homo sapiens, dose 5-25 µg/ml
Mus musculus [35] = assay: In vivo anti-skin aging activity against UV-induced SIPS Kunming mouse model assessed as increase in Skin-fold thickness of dorsal skin at 100 ug/ml administered topically and measured for 10 weeks in presence of propylene glycol by caliper method; format: functional, organism-based; conditions: dose 100.0 µg/ml, route top
Mus musculus [36] = assay: In vivo anti-skin aging activity against UV-induced SIPS Kunming mouse model assessed as restoration of skin elasticity at 100 ug/ml administered topically for 5 weeks in presence of propylene glycol; format: functional, organism-based; conditions: dose 100.0 µg/ml, route top
[37] = Toxicity in Wistar rat mast cell assessed as cell degranulation by measuring increase in beta-hexosaminidase release at 10 ug/mL incubated for 15 mins by fluorescence based analysis (reference value: 0 +/- 1.40 %); conditions: 0.25 h, at 10 µg/mL
HFF-1 [38] = assay: Induction of autophagy in H2O2-induced SIPS HFF-1 cell model assessed as phosphorylated AMPK expression at 5 to 25 ug/mL pretreated with compound for 24 hrs followed by H2O2 exposure for 2 hrs by Western blot analysis; format: functional, cell-based; conditions: Homo sapiens, dose 5-25 µg/ml, time 26.0 hrs
Erythrocyte = assay: Hemolytic activity in human erythrocytes assessed as release of hemoglobin at 10 to 160 ug/ml; format: toxicity, cell-based; conditions: dose 10-160 µg/ml
HFF-1 [39] = assay: Induction of HFF-1 cell migration at 10 ug/mL measured for 2 to 8 hrs by transwell migration assay; format: functional, cell-based; conditions: Homo sapiens, dose 10.0 µg/ml, time 2-8 hrs
HFF-1 [40] = assay: Upregulation of COL-1 expression in UV-A-induced SIPS HFF-1 cell model pretreated with compound for 24 hrs followed by 10.8 J/cm^2 UV-A irradiation by Western blot analysis; format: functional, cell-based; conditions: Homo sapiens, dose 5-25 µg/ml
[41] = Stability of compound in human serum assessed as protease mediated degradation at 2 mg/mL incubated for 24 hrs by RP-HPLC analysis; format: ADME, cell-free

CC(C)[C@H](N)C(=O)N[C@H](C(=O)N[C@@H](CS)C(=O)N1CCC[C@H]1C(=O)N[C@@H](CCCCN)C(=O)O)C(C)C (H-VVCPK-OH)
Activity (HEK293): Active
Activity [1]: Active
Activity [2]: Active

CC(C)[C@H](N)C(=O)N[C@H](C(=O)N[C@@H](CCCCN)C(=O)N[C@@H](CS)C(=O)N1CCC[C@H]1C(=O)N[C@@H](CCCCN)C(=O)O)C(C)C (H-VVKCPK-OH)
Activity (HEK293): Active
Activity [2]: Active
Activity [3]: 85.4%
Activity (Mus musculus [4]): Active

CC(C)[C@H](N)C(=O)N[C@H](C(=O)N1CCC[C@H]1C(=O)N1CCC[C@H]1C(=O)N[C@@H](CS)C(=O)N[C@@H](CCCCN)C(=O)O)C(C)C (H-VVPPCK-OH)
Activity [2]: Active
Activity (HFF-1 [5]): 2.84%

CC(C)[C@H](N)C(=O)N[C@H](C(=O)N1CCC[C@H]1C(=O)N[C@H](C(=O)N[C@H](C(=O)N[C@H](C(=O)N[C@@H](CS)C(=O)N1CCC[C@H]1C(=O)N[C@@H](CCCCN)C(=O)O)C(C)C)C(C)C)[C@@H](C)O)C(C)C (H-VVPTVVCPK-OH)
Activity (HFF-1 [6]): Active
inhibition (HFF-1 [7]): Dose-Dependent Effect
inhibition [8]: Active
Activity (HFF-1 [9]): Dose-Dependent Effect
inhibition (HFF-1 [10]): Dose-Dependent Effect
Activity (HEK293): Active
inhibition (HFF-1 [11]): Dose-Dependent Effect
Activity [12]: 26.03%
Activity (HFF-1 [13]): Active
Activity (HFF-1 [14]): Active
Activity [15]: 5.9%
Activity [2]: Active
Activity [16]: Active
Activity (HFF-1 [5]): 5.14%
inhibition (HFF-1 [17]): Active
Activity [18]: Active
Activity [19]: 23.14%
Activity [20]: 3.01%
inhibition (HFF-1 [21]): Active
Activity (Mus musculus [22]): Active
Activity (HFF-1 [23]): Active
Activity (Mus musculus [24]): Active
Activity (HFF-1 [25]): Active
Activity [26]: Active
Activity (Mus musculus [27]): Active
inhibition (HFF-1 [28]): Dose-Dependent Effect
Activity (HFF-1 [29]): Active
Activity [30]: Active
Activity (HFF-1 [31]): Active
Activity [32]: 21.4%
Activity (Mus musculus [33]): Active
Activity (Mus musculus [4]): Active
Activity (HFF-1 [34]): Active
Activity (Mus musculus [35]): Active
Activity (Mus musculus [36]): Active
Activity [37]: 1.27%
Activity (HFF-1 [38]): Active
Activity (Erythrocyte): Non-Toxic
Activity (HFF-1 [39]): Active
Activity (HFF-1 [40]): Dose-Dependent Effect
Stability [41]: Stable

— ChEMBL document CHEMBL5338806, “Rationally Designed Nonapeptides with Great Skin Photoprotective Effect through Producing Type 1 Collagen and Blocking the mTOR Pathway” (J Med Chem, 2023)
